Results taken from patent US10556907B2 (AbbVie Inc., priority 2015, dated 2020).
Where a name gives a salt, the structure may show the parent alone.

Tests used:
Test in all cases: Method 1: intracellular Ca2+ release (FLIPR, Calcium 5) in recombinant CHO-K1 cells
Assay type in all cases: cell-based
human S1PR1 receptor = biological target: T1, human S1PR1 receptor (Homo sapiens, UniProt P21453); conditions: (1): determined with method 1; read-out: S1P1 EC50
T1 construct: host or cells: CHO-K1
How it was run: (§1)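 Agonist EC50 values come from nonlinear fits of FLIPR Ca2+ fluorescence, normalized to the phospho-fingolimod reference curve. Recombinant CHO-K1 (receptor plus Gq/i5, aequorin) dye-loaded 1 h at 37° C in pH 7.4 Hepes/probenecid/BSA buffer. Antagonist mode: 10 min preincubation before phospho-fingolimod at EC80.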

human S1PR3 receptor = biological target: T2, human S1PR3 receptor (Homo sapiens, UniProt Q99500); conditions: (1): determined with method 1; read-out: S1P3 EC50
T2 construct: host or cells: CHO-K1
T2 sequence (Q99500 whole entry): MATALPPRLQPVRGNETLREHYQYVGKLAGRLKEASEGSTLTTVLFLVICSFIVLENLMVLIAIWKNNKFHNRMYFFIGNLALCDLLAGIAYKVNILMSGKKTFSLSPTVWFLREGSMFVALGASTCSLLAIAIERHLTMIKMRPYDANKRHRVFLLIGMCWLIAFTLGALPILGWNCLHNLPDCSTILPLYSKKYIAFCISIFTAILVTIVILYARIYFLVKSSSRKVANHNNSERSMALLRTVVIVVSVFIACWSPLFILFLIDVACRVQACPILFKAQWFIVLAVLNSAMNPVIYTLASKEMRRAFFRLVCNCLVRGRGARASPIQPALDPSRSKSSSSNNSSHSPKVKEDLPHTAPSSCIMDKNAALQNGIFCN
How it was run: as §1

human S1PR4 receptor = biological target: T3, human S1PR4 receptor (Homo sapiens, UniProt O95977); conditions: (1): determined with method 1; read-out: S1P4 EC50
T3 construct: host or cells: CHO-K1
T3 sequence (O95977 1-384): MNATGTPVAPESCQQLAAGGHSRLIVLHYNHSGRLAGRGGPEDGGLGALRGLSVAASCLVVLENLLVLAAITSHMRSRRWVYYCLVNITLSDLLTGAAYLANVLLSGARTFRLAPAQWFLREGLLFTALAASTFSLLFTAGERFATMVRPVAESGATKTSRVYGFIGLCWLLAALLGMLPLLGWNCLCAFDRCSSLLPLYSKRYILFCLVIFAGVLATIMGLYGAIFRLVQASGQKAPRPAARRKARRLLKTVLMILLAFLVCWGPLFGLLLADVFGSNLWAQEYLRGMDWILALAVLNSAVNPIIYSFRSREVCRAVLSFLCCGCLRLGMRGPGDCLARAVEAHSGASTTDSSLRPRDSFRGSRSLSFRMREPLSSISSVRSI
How it was run: as §1

human S1PR5 receptor = biological target: T4, human S1PR5 receptor (Homo sapiens, UniProt Q9H228); conditions: agonist potency, determined with method 1 (symbols A-D); read-out: S1P5 EC50 range
T4 construct: host or cells: CHO-K1
T4 sequence (Q9H228 whole entry): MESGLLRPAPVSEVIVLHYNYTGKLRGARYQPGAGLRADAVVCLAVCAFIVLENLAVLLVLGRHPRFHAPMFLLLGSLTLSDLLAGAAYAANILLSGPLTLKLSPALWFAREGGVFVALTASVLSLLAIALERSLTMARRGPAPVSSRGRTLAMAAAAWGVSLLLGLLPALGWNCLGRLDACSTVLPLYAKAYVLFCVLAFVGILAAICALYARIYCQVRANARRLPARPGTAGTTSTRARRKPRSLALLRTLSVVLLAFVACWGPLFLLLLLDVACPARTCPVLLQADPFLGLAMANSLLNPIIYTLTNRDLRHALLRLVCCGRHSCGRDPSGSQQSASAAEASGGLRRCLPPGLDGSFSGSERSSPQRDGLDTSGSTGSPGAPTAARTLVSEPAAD
How it was run: as §1

T1 sequence (P21453 whole entry): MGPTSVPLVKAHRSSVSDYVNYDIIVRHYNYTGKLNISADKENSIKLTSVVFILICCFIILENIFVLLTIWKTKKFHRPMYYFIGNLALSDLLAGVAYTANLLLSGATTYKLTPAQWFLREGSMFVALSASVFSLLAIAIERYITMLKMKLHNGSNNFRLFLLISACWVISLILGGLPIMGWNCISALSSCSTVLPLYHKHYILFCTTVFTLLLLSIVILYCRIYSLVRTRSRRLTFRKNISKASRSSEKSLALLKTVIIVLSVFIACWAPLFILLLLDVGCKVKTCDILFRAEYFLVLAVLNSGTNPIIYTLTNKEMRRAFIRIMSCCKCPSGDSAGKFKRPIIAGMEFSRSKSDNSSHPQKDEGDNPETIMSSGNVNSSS

| EC50 (human S1PR1 receptor) [nM] | EC50 (human S1PR3 receptor) [nM] | EC50 (human S1PR4 receptor) [nM] | EC50 (human S1PR5 receptor) [nM] | Structure (SMILES) |
| --- | --- | --- | --- | --- |
| > 1000 | > 1000 | > 1000 | < 10 | CC(CC(=O)O)CN1CCc2nc(-c3ccc(OCc4ccccc4F)cc3F)ncc2C1 (centres unmarked) [Compound 242, 4-[2-[2-fluoro-4-[(2-fluorophenyl)methoxy]phenyl]-7,8-dihydro-5H-pyrido[4,3-d]pyrimidin-6-yl]-3-methyl-butanoic acid 2,2,2-trifluoroacetic acid salt] |
| > 1000 | > 1000 | > 1000 | < 10 | CC(CC(=O)O)CN1CCc2nc(-c3ccc(OCc4c(Cl)cccc4Cl)cc3)ncc2C1 (centres unmarked) [Compound 243, 4-[2-[4-[(2,6-dichlorophenyl)methoxy]phenyl]-7,8-dihydro-5H-pyrido[4,3-d]pyrimidin-6-yl]-3-methyl-butanoic acid 2,2,2-trifluoroacetic acid salt] |
| > 1000 | > 1000 | > 1000 | < 10 | CC(CC(=O)O)CN1CCc2nc(-c3ccc(CCc4ccc(Cl)cc4)cc3)ncc2C1 (centres unmarked) [Compound 244, 4-(2-(4-(4-chlorophenethyl)phenyl)-7,8-dihydropyrido[4,3-d]pyrimidin-6(5H)-yl)-3-methylbutanoic acid] |
| > 1000 | > 1000 | > 1000 | < 10 | Cc1c(COc2ccc(-c3ncc4c(n3)CCN(CC(C)CC(=O)O)C4)cc2)cccc1C(F)(F)F (centres unmarked) [Compound 246, 3-methyl-4-[2-[4-[[2-methyl-3-(trifluoromethyl)phenyl]methoxy]phenyl]-7,8-dihydro-5H-pyrido[4,3-d]pyrimidin-6-yl]butanoic acid 2,2,2-trifluoroacetic acid salt] |
| > 1000 | > 1000 | > 1000 | < 10 | Cc1ccc(COc2ccc(-c3ncc4c(n3)CCN(CC(C)CC(=O)O)C4)cc2)cc1C(F)(F)F (centres unmarked) [Compound 247, 3-methyl-4-[2-[4-[[4-methyl-3-(trifluoromethyl)phenyl]methoxy]phenyl]-7,8-dihydro-5H-pyrido[4,3-d]pyrimidin-6-yl]butanoic acid 2,2,2-trifluoroacetic acid salt] |
| < 1000 | > 1000 | > 1000 | < 10 | Cc1ccc(COc2ccc(-c3ncc4c(n3)CCN(CC(C)CC(=O)O)C4)cc2)cc1 (centres unmarked) [Compound 248, 3-methyl-4-(2-(4-((4-methylbenzyl)oxy)phenyl)-7,8-dihydropyrido[4,3-d]pyrimidin-6(5H)-yl)butanoic acid] |
| > 1000 | > 1000 | > 1000 | < 10 | Cc1ccccc1COc1ccc(-c2ncc3c(n2)CCN(C[C@@H](C)CC(=O)O)C3)cc1C [Compound 249] |
| > 1000 | > 1000 | > 1000 | < 10 | CC(CC(=O)O)CN1CCc2nc(-c3ccc(CCc4ccc(Cl)cc4F)cc3)ncc2C1 (centres unmarked) [Compound 250, 4-(2-(4-(4-chloro-2-fluorophenethyl)phenyl)-7,8-dihydropyrido[4,3-d]pyrimidin-6(5H)-yl)-3-methylbutanoic acid] |
| > 1000 | > 1000 | > 1000 | < 10 | Cc1cc(-c2ncc3c(n2)CCN(CC(C)CC(=O)O)C3)ccc1OCc1ccccc1 (centres unmarked) [Compound 251, 4-(2-(4-(benzyloxy)-3-methylphenyl)-7,8-dihydropyrido[4,3-d]pyrimidin-6(5H)-yl)-3-methylbutanoic acid] |
| > 1000 | > 1000 | > 1000 | < 10 | Cc1cc(-c2ncc3c(n2)CCN(CC(C)CC(=O)O)C3)ccc1OCc1cccc(Cl)c1 (centres unmarked) [Compound 252, 4-(2-(4-((3-chlorobenzyl)oxy)-3-methylphenyl)-7,8-dihydropyrido[4,3-d]pyrimidin-6(5H)-yl)-3-methylbutanoic acid] |
| > 1000 | > 1000 | > 1000 | < 10 | CC(CC(=O)O)CN1CCc2nc(-c3ccc(C(F)Cc4ccc(Cl)cc4F)cc3)ncc2C1 (centres unmarked) [Compound 253] |
| > 1000 | > 1000 | > 1000 | < 10 | CC(CC(=O)O)CN1CCc2nc(-c3ccc(OCc4ccccc4C(F)(F)F)cc3)ncc2C1 (centres unmarked) [Compound 254, 3-methyl-4-[2-[4-[[2-(trifluoromethyl)phenyl]methoxy]phenyl]-7,8-dihydro-5H-pyrido[4,3-d]pyrimidin-6-yl]butanoic acid 2,2,2-trifluoroacetic acid salt] |
| > 1000 | > 1000 | > 1000 | 10 to 100 | CSc1ccc(COc2ccc(-c3ncc4c(n3)CCN(CC(C)CC(=O)O)C4)cc2)cc1 (centres unmarked) [Compound 257, 3-methyl-4-[2-[4-[(4-methylsulfanylphenyl)methoxy]phenyl]-7,8-dihydro-5H-pyrido[4,3-d]pyrimidin-6-yl]butanoic acid 2,2,2-trifluoroacetic acid salt] |
| > 1000 | > 1000 | > 1000 | 10 to 100 | Cc1cc(-c2ncc3c(n2)CCN(CC(C)CC(=O)O)C3)ccc1OCc1ccc(Cl)cc1 (centres unmarked) [Compound 258, 4-(2-(4-((4-chlorobenzyl)oxy)-3-methylphenyl)-7,8-dihydropyrido[4,3-d]pyrimidin-6(5H)-yl)-3-methylbutanoic acid] |
| > 1000 | > 1000 | > 1000 | 10 to 100 | CC(CC(=O)O)CN1CCc2nc(-c3ccc(OCc4ccc(Cl)cc4)cc3)ncc2C1 (centres unmarked) [Compound 259, 4-(2-(4-((4-chlorobenzyl)oxy)phenyl)-7,8-dihydropyrido[4,3-d]pyrimidin-6(5H)-yl)-3-methylbutanoic acid] |
| > 1000 | > 1000 | > 1000 | 10 to 100 | CC(CC(=O)O)CN1CCc2nc(-c3ccc(OCc4ccccc4C(F)(F)F)cc3F)ncc2C1 (centres unmarked) [Compound 260, 4-[2-[2-fluoro-4-[[2-(trifluoromethyl)phenyl]methoxy]phenyl]-7,8-dihydro-5H-pyrido[4,3-d]pyrimidin-6-yl]-3-methyl-butanoic acid 2,2,2-trifluoroacetic acid salt] |
| > 1000 | > 1000 | > 1000 | 10 to 100 | CC(CC(=O)O)CN1CCc2nc(-c3ccc(OCc4ccc(C(F)(F)F)cc4)cc3F)ncc2C1 (centres unmarked) [Compound 263, 4-[2-[2-fluoro-4-[[4-(trifluoromethyl)phenyl]methoxy]phenyl]-7,8-dihydro-5H-pyrido[4,3-d]pyrimidin-6-yl]-3-methyl-butanoic acid 2,2,2-trifluoroacetic acid salt] |
| > 1000 | > 1000 | > 1000 | 10 to 100 | CC(CC(=O)O)CN1CCc2nc(-c3ccc(C(F)(F)Cc4ccc(Cl)cc4)cc3)ncc2C1 (centres unmarked) [Compound 265, 4-(2-(4-(2-(4-chlorophenyl)-1,1-difluoroethyl)phenyl)-7,8-dihydropyrido[4,3-d]pyrimidin-6(5H)-yl)-3-methylbutanoic acid] |
| > 1000 | > 1000 | > 1000 | 10 to 100 | C[C@@H](CC(=O)O)CN1CCc2nc(-c3ccc(OCc4ccc(Cl)cc4)cc3)ncc2C1=O [Compound 267, (S)-4-(2-(4-((4-chlorobenzyl)oxy)phenyl)-5-oxo-7,8-dihydropyrido[4,3-d]pyrimidin-6(5H)-yl)-3-methylbutanoic acid] |
| > 1000 | > 1000 | > 1000 | 10 to 100 | CC(CC(=O)O)CN1CCc2nc(-c3ccc(OCc4cccc(Cl)c4Cl)cc3)ncc2C1 (centres unmarked) [Compound 268, 4-[2-[4-[(2,3-dichlorophenyl)methoxy]phenyl]-7,8-dihydro-5H-pyrido[4,3-d]pyrimidin-6-yl]-3-methyl-butanoic acid 2,2,2-trifluoroacetic acid salt] |
| > 1000 | > 1000 | > 1000 | 10 to 100 | CC(CC(=O)O)CN1CCc2nc(-c3ccc(OCc4ccc(Cl)c(Cl)c4)cc3F)ncc2C1 (centres unmarked) [Compound 271, 4-[2-[4-[(3,4-dichlorophenyl)methoxy]-2-fluoro-phenyl]-7,8-dihydro-5H-pyrido[4,3-d]pyrimidin-6-yl]-3-methyl-butanoic acid 2,2,2-trifluoroacetic acid salt] |
| > 1000 | > 1000 | > 1000 | 10 to 100 | Cc1ccc(C(F)(F)F)c(COc2ccc(-c3ncc4c(n3)CCN(CC(C)CC(=O)O)C4)cc2)c1 (centres unmarked) [Compound 275, 3-methyl-4-[2-[4-[[5-methyl-2-(trifluoromethyl)phenyl]methoxy]phenyl]-7,8-dihydro-5H-pyrido[4,3-d]pyrimidin-6-yl]butanoic acid 2,2,2-trifluoroacetic acid salt] |
| > 1000 | > 1000 | > 1000 | 10 to 100 | CC(CC(=O)O)CN1CCc2nc(-c3ccc(C(F)(F)Cc4ccc(Cl)cc4F)cc3)ncc2C1 (centres unmarked) [Compound 277] |
